In US12252524B2, “GIP/GLP1 co-agonist compounds” (Eli Lilly and Company, priority 2018, dated 2025):
Numbered stars: 1 amine (or outer) side, 2 acyl side, 3 side chain; on linkers, the order of the positions; unused ones are H or OH. Square brackets hold non-standard residues; d marks the D form. Side chains are listed from the residue outwards. Peptide text beside a SMILES is read from it. * marks the point of attachment. Malonyl(2,2-Me2,histaminyl) = CC(C)(C(=O)NCCc1cnc[nH]1)C(=O)*; C20 diacid = O=C(O)CCCCCCCCCCCCCCCCCCC(=O)*; C18 diacid = O=C(O)CCCCCCCCCCCCCCCCC(=O)*; αMePhe(2-F) = C[C@](N)(Cc1ccccc1F)C(=O)O; γGlu = O=C(O)[C@H](CCC(=O)[*:2])N[*:1]; αMeF = C[C@](N)(Cc1ccccc1)C(=O)O; αMeL = CC(C)C[C@](C)(N)C(=O)O; AEEA = NCCOCCOCC(=O)O; Aib = CC(C)(N)C(=O)O

How the values were obtained:
[1] = target: T1, human GIP receptor (Homo sapiens, UniProt P48546); experiment: [125I]-GIP binding (SPA), human GIP receptor; conditions: read-out: hGIPR Ki, nM (SEM, n)
T1 construct: expressed in transfected cells; crude membranes
T1 sequence (P48546 22-466): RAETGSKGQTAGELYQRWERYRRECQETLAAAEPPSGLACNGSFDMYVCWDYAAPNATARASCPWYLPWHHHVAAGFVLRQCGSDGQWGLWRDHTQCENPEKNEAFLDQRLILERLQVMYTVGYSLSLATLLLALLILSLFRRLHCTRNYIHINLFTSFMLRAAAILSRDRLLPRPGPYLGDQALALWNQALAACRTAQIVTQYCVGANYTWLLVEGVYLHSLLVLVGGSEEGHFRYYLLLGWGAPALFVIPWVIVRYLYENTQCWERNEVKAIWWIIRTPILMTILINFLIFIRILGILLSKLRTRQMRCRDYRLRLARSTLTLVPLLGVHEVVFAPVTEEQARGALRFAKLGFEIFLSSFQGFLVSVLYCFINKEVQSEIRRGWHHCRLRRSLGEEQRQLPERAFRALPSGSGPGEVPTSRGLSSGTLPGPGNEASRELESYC

[2] = target: human GLP-1 receptor (GLP-1R) (Homo sapiens, UniProt P43220); experiment: cAMP pharmacological functional assay in presence of casein, hGLP-1R; format: cell-based; conditions: HEK293 cells expressing hGLP-1R, 0.1% Casein, geometric mean; read-out: hGLP1R cAMP Rel EC50 nM (SEM, n)
[3] = target: T2, human Gcg receptor (Homo sapiens, UniProt P47871); experiment: [125I]-Glucagon binding (SPA), human Gcg receptor; conditions: read-out: hGLcgR Ki, nM (SEM, n)
T2 construct: expressed in transfected cells; crude membranes
Procedure, shortened: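 Crude membranes from cells expressing the receptor, prepared by hypotonic lysis in 50 mM Tris HCl pH 7.5 with protease inhibitors, homogenization and differential centrifugation, were used in a WGA-bead SPA. Binding buffer: 25 mM HEPES pH 7.4, 2.5 mM CaCl2, 1 mM MgCl2, bacitracin, Tween-20.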

[4] = target: T3, gastric inhibitory peptide receptor (GIPR) (Homo sapiens, UniProt P48546); experiment: cAMP pharmacological functional assay in presence of casein, hGIPR; format: cell-based; conditions: HEK293 cells expressing hGIPR, 0.1% Casein, geometric mean; read-out: hGIPR cAMP Rel EC50 nM (SEM, n)
T3 sequence (P48546 22-466): T1 sequence (P48546 22-466)

[5] = target: human GLP-1R (Homo sapiens, UniProt P43220); experiment: [125I]-GLP-1 binding (SPA), human GLP-1 receptor; parameters: expressed in transfected cells; crude membranes; conditions: read-out: hGLP1R Ki, (nM) (SEM, n)
Procedure, shortened: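 Ki values are geometric means with SEM over independent replicates on different days, derived from IC50s fitted by four-parameter nonlinear regression. The assay used crude cell membranes in HEPES buffer, pH 7.4, containing CaCl2, MgCl2, bacitracin and TWEEN-20.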

Sequence of human GLP-1 receptor (GLP-1R) (P43220 24-463): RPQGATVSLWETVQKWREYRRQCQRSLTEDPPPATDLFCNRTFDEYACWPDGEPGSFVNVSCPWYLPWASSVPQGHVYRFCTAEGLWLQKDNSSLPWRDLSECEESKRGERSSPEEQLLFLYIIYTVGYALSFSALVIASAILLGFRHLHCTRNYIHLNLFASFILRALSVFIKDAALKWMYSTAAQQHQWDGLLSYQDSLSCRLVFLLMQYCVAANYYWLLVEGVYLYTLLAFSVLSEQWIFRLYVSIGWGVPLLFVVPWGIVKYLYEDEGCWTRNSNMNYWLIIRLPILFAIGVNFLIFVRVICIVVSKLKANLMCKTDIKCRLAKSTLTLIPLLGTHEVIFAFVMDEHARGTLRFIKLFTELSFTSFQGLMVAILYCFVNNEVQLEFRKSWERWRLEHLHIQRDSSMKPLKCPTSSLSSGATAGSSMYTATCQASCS
Sequence of human GLP-1R (P43220 24-463): as above
T2 sequence (P47871 26-477): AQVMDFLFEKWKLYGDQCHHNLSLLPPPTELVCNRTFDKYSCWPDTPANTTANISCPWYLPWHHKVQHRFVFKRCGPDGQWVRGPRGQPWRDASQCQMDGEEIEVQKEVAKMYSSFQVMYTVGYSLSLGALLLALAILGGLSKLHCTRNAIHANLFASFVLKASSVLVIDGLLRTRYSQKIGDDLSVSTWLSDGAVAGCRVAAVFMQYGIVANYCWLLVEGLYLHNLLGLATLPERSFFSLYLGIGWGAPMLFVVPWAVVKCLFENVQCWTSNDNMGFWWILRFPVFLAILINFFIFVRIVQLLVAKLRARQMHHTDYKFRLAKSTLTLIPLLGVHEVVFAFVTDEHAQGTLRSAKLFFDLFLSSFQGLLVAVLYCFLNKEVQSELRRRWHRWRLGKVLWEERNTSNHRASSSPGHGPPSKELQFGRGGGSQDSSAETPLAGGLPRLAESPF

Row | Structure (SMILES) | Ki [1] | EC50 [2] | Ki [3] | EC50 [4] | Ki [5]
1 | CC[C@H](C)[C@H](NC(=O)[C@H](CC(C)C)NC(=O)[C@H](Cc1ccc(O)cc1)NC(=O)[C@H](CCC(=O)O)NC(=O)[C@@H](NC(=O)[C@H](Cc1ccccc1)NC(=O)[C@H](C)NC(=O)C(C)(C)NC(=O)[C@H](CCC(N)=O)NC(=O)[C@H](C)NC(=O)[C@H](CCCCNC(=O)COCCOCCNC(=O)COCCOCCNC(=O)CC[C@H](NC(=O)CCCCCCCCCCCCCCCCCCC(=O)O)C(=O)O)NC(=O)[C@H](CCCCN)NC(=O)[C@H](CC(=O)O)NC(=O)[C@H](CC(C)C)NC(=O)[C@H](CC(C)C)NC(=O)[C@@H](NC(=O)[C@H](CO)NC(=O)[C@H](Cc1ccc(O)cc1)NC(=O)[C@H](CC(=O)O)NC(=O)[C@H](CO)NC(=O)[C@@H](NC(=O)[C@H](Cc1ccccc1)NC(=O)[C@@H](NC(=O)CNC(=O)[C@H](CCC(=O)O)NC(=O)C(C)(C)C(=O)NCCc1cnc[nH]1)[C@@H](C)O)[C@@H](C)O)[C@@H](C)CC)[C@@H](C)CC)C(=O)N[C@@H](CCC(=O)O)C(=O)NCC(=O)NCC(=O)N1CCC[C@H]1C(=O)N[C@@H](CO)C(=O)N[C@@H](CO)C(=O)NCC(=O)N[C@@H](C)C(=O)N1CCC[C@H]1C(=O)N1CCC[C@H]1C(=O)N1CCC[C@H]1C(=O)N[C@@H](CO)C(N)=O [Example 105] ({Malonyl(2,2-Me2,histaminyl)}-EGTFTSDYSILLDKK([AEEA-AEEA-γGlu-C20 diacid])AQ[Aib]AFIEYLIEGGPSSGAPPPS-NH2) | 0.119 nM | 0.0401 nM | 20.4 nM | 1.85 nM | 0.871 nM
2 | CC[C@H](C)[C@H](NC(=O)[C@H](CC(C)C)NC(=O)[C@H](Cc1ccc(O)cc1)NC(=O)[C@H](CCC(=O)O)NC(=O)[C@@H](NC(=O)[C@H](Cc1ccccc1)NC(=O)[C@H](C)NC(=O)C(C)(C)NC(=O)[C@H](CCC(N)=O)NC(=O)[C@H](C)NC(=O)[C@H](CCCCNC(=O)COCCOCCNC(=O)COCCOCCNC(=O)CC[C@H](NC(=O)CCCCCCCCCCCCCCCCC(=O)O)C(=O)O)NC(=O)[C@H](CCC(=O)O)NC(=O)[C@H](CC(=O)O)NC(=O)[C@H](CC(C)C)NC(=O)[C@H](CC(C)C)NC(=O)[C@@H](NC(=O)[C@H](CO)NC(=O)[C@H](Cc1ccc(O)cc1)NC(=O)[C@H](CC(=O)O)NC(=O)[C@H](CO)NC(=O)[C@@H](NC(=O)[C@](C)(Cc1ccccc1F)NC(=O)[C@@H](NC(=O)CNC(=O)[C@H](CCC(=O)O)NC(=O)C(C)(C)NC(=O)[C@@H](N)Cc1ccc(O)cc1)[C@@H](C)O)[C@@H](C)O)[C@@H](C)CC)[C@@H](C)CC)C(=O)N[C@@H](CCC(=O)O)C(=O)NCC(=O)NCC(=O)N1CCC[C@H]1C(=O)N[C@@H](CO)C(=O)N[C@@H](CO)C(=O)NCC(N)=O [Example 311] (H-Y[Aib]EGT[αMePhe(2-F)]TSDYSILLDEK([AEEA-AEEA-γGlu-C18 diacid])AQ[Aib]AFIEYLIEGGPSSG-NH2) | 0.0497 nM | 0.0393 nM | 115 nM | 0.0334 nM | 11.5 nM
3 | CC[C@H](C)[C@H](NC(=O)[C@H](CC(C)C)NC(=O)[C@H](Cc1ccc(O)cc1)NC(=O)[C@H](CCC(=O)O)NC(=O)[C@@H](NC(=O)[C@H](Cc1ccccc1)NC(=O)[C@H](C)NC(=O)C(C)(C)NC(=O)[C@H](CCC(N)=O)NC(=O)[C@H](C)NC(=O)[C@H](CCCCNC(=O)COCCOCCNC(=O)COCCOCCNC(=O)CC[C@H](NC(=O)CCCCCCCCCCCCCCCCC(=O)O)C(=O)O)NC(=O)[C@H](CCC(=O)O)NC(=O)[C@H](CC(=O)O)NC(=O)[C@H](CC(C)C)NC(=O)[C@H](CC(C)C)NC(=O)[C@@H](NC(=O)[C@H](CO)NC(=O)[C@H](Cc1ccc(O)cc1)NC(=O)[C@H](CC(=O)O)NC(=O)[C@H](CO)NC(=O)[C@@H](NC(=O)[C@](C)(Cc1ccccc1)NC(=O)[C@@H](NC(=O)CNC(=O)[C@H](CCC(=O)O)NC(=O)C(C)(C)NC(=O)[C@@H](N)Cc1ccc(O)cc1)[C@@H](C)O)[C@@H](C)O)[C@@H](C)CC)[C@@H](C)CC)C(=O)N[C@@H](CCC(=O)O)C(=O)NCC(=O)NCC(=O)N1CCC[C@H]1C(=O)N[C@@H](CO)C(=O)N[C@@H](CO)C(=O)NCC(N)=O [Example 307] (H-Y[Aib]EGT[αMeF]TSDYSILLDEK([AEEA-AEEA-γGlu-C18 diacid])AQ[Aib]AFIEYLIEGGPSSG-NH2) | 0.0773 nM | 0.0437 nM | 117 nM | 0.0285 nM | 5.1 nM
4 | CC[C@H](C)[C@H](NC(=O)[C@H](CC(C)C)NC(=O)[C@H](Cc1ccc(O)cc1)NC(=O)[C@H](CCC(=O)O)NC(=O)[C@@H](NC(=O)[C@H](Cc1ccccc1)NC(=O)C(C)(C)NC(=O)C(C)(C)NC(=O)[C@H](CCC(N)=O)NC(=O)[C@H](C)NC(=O)[C@H](CCCCNC(=O)COCCOCCNC(=O)COCCOCCNC(=O)CC[C@H](NC(=O)CCCCCCCCCCCCCCCCCCC(=O)O)C(=O)O)NC(=O)[C@H](CCCCN)NC(=O)[C@H](CC(=O)O)NC(=O)[C@H](CC(C)C)NC(=O)[C@](C)(CC(C)C)NC(=O)[C@@H](NC(=O)[C@H](CO)NC(=O)[C@H](Cc1ccc(O)cc1)NC(=O)[C@H](CC(=O)O)NC(=O)[C@H](CO)NC(=O)[C@@H](NC(=O)[C@](C)(Cc1ccccc1)NC(=O)[C@@H](NC(=O)CNC(=O)[C@H](CCC(=O)O)NC(=O)C(C)(C)NC(=O)[C@@H](N)Cc1ccc(O)cc1)[C@@H](C)O)[C@@H](C)O)[C@@H](C)CC)[C@@H](C)CC)C(=O)N[C@@H](CCC(=O)O)C(=O)NCC(=O)NCC(=O)N1CCC[C@H]1C(=O)N[C@@H](CO)C(=O)N[C@@H](CO)C(=O)NCC(=O)N[C@@H](C)C(=O)N1CCC[C@H]1C(=O)N1CCC[C@H]1C(=O)N1CCC[C@H]1C(=O)N[C@@H](CO)C(N)=O [Example 143] (H-Y[Aib]EGT[αMeF]TSDYSI[αMeL]LDKK([AEEA-AEEA-γGlu-C20 diacid])AQ[Aib][Aib]FIEYLIEGGPSSGAPPPS-NH2) | 0.0304 nM | 0.0745 nM | 65.5 nM | 0.0515 nM | 1.15 nM
5 | CC[C@H](C)[C@H](NC(=O)[C@H](CC(C)C)NC(=O)[C@H](Cc1ccc(O)cc1)NC(=O)[C@H](CCC(=O)O)NC(=O)[C@@H](NC(=O)[C@H](Cc1ccccc1)NC(=O)[C@H](C)NC(=O)C(C)(C)NC(=O)[C@H](CCC(N)=O)NC(=O)[C@H](C)NC(=O)[C@H](CCCCNC(=O)COCCOCCNC(=O)COCCOCCNC(=O)CC[C@H](NC(=O)CCCCCCCCCCCCCCCCCCC(=O)O)C(=O)O)NC(=O)[C@H](CCCCN)NC(=O)[C@H](CC(=O)O)NC(=O)[C@H](CC(C)C)NC(=O)[C@H](CC(C)C)NC(=O)[C@@H](NC(=O)[C@](C)(CO)NC(=O)[C@H](Cc1ccc(O)cc1)NC(=O)[C@H](CC(=O)O)NC(=O)[C@H](CO)NC(=O)[C@@H](NC(=O)[C@H](Cc1ccccc1)NC(=O)[C@@H](NC(=O)CNC(=O)[C@H](CCC(=O)O)NC(=O)C(C)(C)NC(=O)[C@@H](N)Cc1ccc(O)cc1)[C@@H](C)O)[C@@H](C)O)[C@@H](C)CC)[C@@H](C)CC)C(=O)N[C@@H](CCC(=O)O)C(=O)NCC(=O)NCC(=O)N1CCC[C@H]1C(=O)N[C@@H](CO)C(=O)N[C@@H](CO)C(=O)NCC(=O)N[C@@H](C)C(=O)N1CCC[C@H]1C(=O)N1CCC[C@H]1C(=O)N1CCC[C@H]1C(=O)N[C@@H](CO)C(N)=O [Example 68] | 0.0243 nM | 0.153 nM | 99.2 nM | 0.0881 nM | 1.58 nM
6 | CC[C@H](C)[C@H](NC(=O)[C@H](CC(C)C)NC(=O)[C@H](Cc1ccc(O)cc1)NC(=O)[C@@H](CCC(=O)O)NC(=O)[C@@H](NC(=O)[C@H](Cc1ccccc1)NC(=O)[C@H](CCC(=O)O)NC(=O)C(C)(C)NC(=O)[C@H](CCC(N)=O)NC(=O)[C@H](C)NC(=O)[C@H](CCCCNC(=O)COCCOCCNC(=O)COCCOCCNC(=O)CCCCCCCCCCCCCCCCCCC(=O)O)NC(=O)[C@H](CCC(=O)O)NC(=O)[C@H](CC(=O)O)NC(=O)[C@H](CC(C)C)NC(=O)[C@](C)(CC(C)C)NC(=O)[C@@H](NC(=O)[C@H](CO)NC(=O)[C@H](Cc1ccc(O)cc1)NC(=O)[C@H](CC(=O)O)NC(=O)[C@H](CO)NC(=O)[C@@H](NC(=O)[C@](C)(Cc1ccccc1F)NC(=O)[C@@H](NC(=O)CNC(=O)[C@H](CCC(=O)O)NC(=O)C(C)(C)NC(=O)[C@@H](N)Cc1ccc(O)cc1)[C@@H](C)O)[C@@H](C)O)[C@@H](C)CC)[C@@H](C)CC)C(=O)N[C@@H](CCC(=O)O)C(=O)NCC(=O)NCC(=O)N1CCC[C@H]1C(=O)N[C@@H](CO)C(=O)N[C@@H](CO)C(=O)NCC(=O)N[C@@H](C)C(=O)N1CCC[C@H]1C(=O)N1CCC[C@H]1C(=O)N1CCC[C@H]1C(=O)N[C@@H](CO)C(N)=O [Example 215] (H-Y[Aib]EGT[αMePhe(2-F)]TSDYSI[αMeL]LDEK([AEEA-AEEA-C20 diacid])AQ[Aib]EFI[dE]YLIEGGPSSGAPPPS-NH2) | 0.0666 nM | 0.0529 nM | 75.2 nM | 0.0525 nM | 6.85 nM
